Measurements: patent US9458113B2 (Boehringer Ingelheim International GmbH, priority 2014, dated 2016)

Key:
[1] = biological target: neutrophil elastase in zymosan-stimulated human plasma (Homo sapiens (Human), UniProt P08246); assay: Neutrophil elastase inhibitory activity in human plasma; type: biochemical; conditions: human plasma from zymosan-stimulated blood
Procedure: Assay for the Determination of Neutrophil Elastase Inhibitory Activity in Human Plasma
Citrated blood from human healthy donors is mixed with zymosan suspension and incubated at room temperature. This leads to the stimulation of neutrophils and the release of neutrophil elastase into the plasma. The stimulated blood is centrifuged to generate the neutrophil elastase enriched plasma.
Various concentrations of the neutrophil elastase inhibitor are incubated with plasma. […] A dose response curve is generated to calculate the EC50 of the inhibitor.

[2] = Drug transport across human Caco-2 cells; type: in vitro ADME; conditions: apparent permeability coefficient, Caco-2 monolayers, pH 7.2, 37° C.; for Papp A→B at 10 µM: apical-to-basal (absorptive), read-out: PEAB; for Papp B→A at 10 µM: basal-to-apical (secretory), read-out: PEBA
Excerpt: Assay for Determination of Drug Transport Across Human Caco-2 Cells
The assay provides information on the potential of a compound to pass the cell membrane, on the extent of oral absorption as well as on whether the compound is actively transported by uptake and/or efflux transporters. For the measurement of permeability across polarized, confluent human cancer colon carcinoma cells 2 (Caco-2) cell monolayers grown on permeable filter supports are used as the in vitro absorption model.
Apparent permeability coefficients (PE) of the compounds across the Caco-2 monolayers are measured (pH 7.2, 37° C.) in apical-to-basal (AB) (absorptive) and basal-to-apical (BA) (secretory) transport direction. AB permeability (PEAB) represents drug absorption from the intestine into the blood and BA permeability (PEBA) drug secretion from the blood back into the intestine via both passive permeability as well as active transport mechanisms mediated by efflux and uptake transporters that are expressed on the Caco-2 cells. The compounds are assigned to permeability/absorption classes by comparison of the AB permeabilities with the AB permeabilities of reference compounds with known in vitro permeability and oral absorption in the human. Identical or similar permeabilities in both transport directions indicate passive permeation, vectorial permeability points to additional active transport mechanisms. […] Active transport is concentration-dependently saturable.
Caco-2 cells (1-2*10^5 cells/cm^2 area) are seeded on filter inserts (Costar transwell polycarbonate or PET filters, 0.4 μm pore size) and cultured (DMEM) for 10 to 25 days. Compounds are dissolved in appropriate solvent (like DMSO, […] stock solutions). Stock solutions are diluted with HTP-4 buffer (128.13 mM NaCl, 5.36 mM KCl, 1 mM MgSO4, 1.8 mM CaCl2, 4.17 mM NaHCO3, 1.19 mM Na2HPO4x7H2O, 0.41 mM NaH2PO4xH2O, 15 mM HEPES, 20 mM glucose, pH 7.2) to prepare the transport solutions (typically 10 μM compound, final DMSO<=0.5%). The transport solution (TL) is applied to the apical or basolateral donor side for measuring A-B or B-A permeability (3 filter replicates), respectively. The receiver side contains HTP-4 buffer supplemented with 2% BSA. Samples are collected at the start and end of experiment from the donor and at various time intervals for up to 2 hours also from the receiver side for concentration measurement by LC-MS/MS or scintillation counting. Sampled receiver volumes are replaced with fresh receiver solution.
The apparent permeability coefficients (PEAB and PEBA) of selected compounds in the Caco-2 drug transport assay described above are listed in Table 16.

Chain of neutrophil elastase in zymosan-stimulated human plasma (P08246 30-247): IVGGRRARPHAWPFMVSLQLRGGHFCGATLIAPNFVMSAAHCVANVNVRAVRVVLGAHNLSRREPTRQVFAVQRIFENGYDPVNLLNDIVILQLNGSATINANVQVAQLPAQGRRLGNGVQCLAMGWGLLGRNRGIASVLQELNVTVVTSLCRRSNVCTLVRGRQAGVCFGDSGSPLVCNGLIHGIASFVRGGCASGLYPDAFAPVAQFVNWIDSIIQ

Structure (SMILES) | EC50 [1] [nM] | Papp A→B at 10 µM [2] [×10⁻⁶ cm/s] | Papp B→A at 10 µM [2] [×10⁻⁶ cm/s]
CN1C(=O)N(c2cccc(C(F)(F)F)c2)C2=C(C(=O)CC2)[C@H]1c1ccc(C#N)cc1C(N)=O [Example 2, 5-Cyano-2-[(R)-3-methyl-2,5-dioxo-1-(3-trifluoromethyl-phenyl)-2,3,4,5,6,7-hexahydro-1H-cyclopentapyrimidin-4-yl]-benzamide] | 1 | 4.8 | 51
CN1C(=O)N(c2cccc(C(F)(F)F)c2)C2=C(C(=O)CC2)[C@H]1c1ccc(C#N)cc1-c1ccc(=O)n(C)c1 [Example 23, 4-[(R)-3-Methyl-2,5-dioxo-1-(3-trifluoromethyl-phenyl)-2,3,4,5,6,7-hexahydro-1H-cyclopentapyrimidin-4-yl]-3-(1-methyl-6-oxo-1,6-dihydro-pyridin-3-yl)-benzonitrile] | 1 | 6.6 | 87
CN1C(=O)N(c2cccc(C(F)(F)F)c2)C2=C(C(=O)CC2)[C@H]1c1ccc(C#N)cc1CNC(C)(C)C [Example 24, 3-(tert-Butylamino-methyl)-4-[(R)-3-methyl-2,5-dioxo-1-(3-trifluoromethyl-phenyl)-2,3,4,5,6,7-hexahydro-1H-cyclopentapyrimidin-4-yl]-benzonitrile] | 7 | 21 | 84
